Test results published in ChEMBL document CHEMBL1201862, “PubChem BioAssay data set” (2004).
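Tested at 5 concentrations; 48 h exposure; 96-well plates; endpoints linearly interpolated, else capped at highest concentration. GI50 marks 50% less growth.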 Calls of active or inactive are those of the source. No stated cut-off is given here; in the data, active = GI50 up to about 1.1 µM and inactive = higher.

What was measured:
Assay in all cases: NCI anticancer screen, dose series, 48 h
[1] = system: SK-MEL-2
[2] = system: COLO 205
[3] = system: M14
[4] = system: SN12C
[5] = system: SK-OV-3
[6] = system: HT-29
[7] = system: NCI-H460
[8] = system: SF-295
[9] = system: K562
[10] = system: NCI-H522
[11] = system: HCC 2998
[12] = system: KM12
[13] = system: UACC-62
[14] = system: SF-539
[15] = system: MOLT-4
[16] = system: SR

Measured: GI50

COc1ccc(/C=C2/C(=O)N(C(=O)c3ccc(Cl)cc3)N=C2C)cc1OC
inactive: [1] > 100 µM | [2] > 100 µM | [3] > 100 µM | [4] > 100 µM | [5] > 100 µM | [6] > 100 µM | [7] > 100 µM | [8] > 100 µM | [9] > 100 µM | [10] > 100 µM | [11] > 100 µM | [12] > 100 µM | [13] > 100 µM | [14] > 100 µM

COc1ccc(S(=O)(=O)N(C)CC(=O)O)cc1
inactive: [1] > 100 µM | [2] > 100 µM | [3] > 100 µM | [4] > 100 µM | [5] > 100 µM | [6] > 100 µM | [7] > 100 µM | [8] > 100 µM | [9] > 100 µM | [10] > 100 µM | [11] > 100 µM | [15] > 100 µM | [12] > 100 µM | [13] > 100 µM | [14] > 100 µM

Cc1ccc(C(=O)/C=C/c2ccccc2O)c(C)c1
inactive: [1] > 100 µM | [2] > 100 µM | [3] > 100 µM | [4] > 100 µM | [5] > 100 µM | [7] > 100 µM | [8] > 100 µM | [9] > 100 µM | [10] > 100 µM | [11] > 100 µM | [15] 94.8 µM | [12] > 100 µM | [13] > 100 µM | [14] > 100 µM
active: [6] 0.8 µM

COc1ccccc1/C=N/N=C(\N)NO
inactive: [16] 31.8 µM | [1] 23.8 µM | [2] 18.9 µM | [4] 30.2 µM | [5] 71.9 µM | [6] 18.6 µM | [7] 4.14 µM | [8] 3.09 µM | [9] 3.65 µM | [10] 18.7 µM | [11] 4.68 µM | [15] 12.6 µM | [12] 12.7 µM | [13] 4.21 µM | [14] 3.03 µM

O=C1Nc2ccccc2C1(O)C/C(=N/O)c1ccc2ccccc2c1 (stereo unspecified)
inactive: [1] > 100 µM | [2] > 100 µM | [3] > 100 µM | [4] > 100 µM | [5] 49.1 µM | [6] > 100 µM | [7] > 100 µM | [8] > 100 µM | [9] 72.6 µM | [10] > 100 µM | [11] > 100 µM | [15] 64.9 µM | [12] > 100 µM | [14] > 100 µM

c1ccc2c(c1)[Se]c1ccccc1[Se]2
inactive: [16] 85.3 µM | [1] > 100 µM | [2] > 100 µM | [3] > 100 µM | [4] > 100 µM | [5] > 100 µM | [6] > 100 µM | [7] 38.3 µM | [8] 25.6 µM | [9] > 100 µM | [10] > 100 µM | [15] 77.6 µM | [12] > 100 µM | [13] > 100 µM | [14] 44.3 µM

Cc1cc(NC(=O)C2C3C=CC(O3)C2C(=O)O)no1 (stereo unspecified)
inactive: [16] 21.8 µM | [1] > 100 µM | [2] 17.7 µM | [3] > 100 µM | [4] 37.6 µM | [5] > 100 µM | [6] 34.6 µM | [7] 31.7 µM | [8] > 100 µM | [9] 22.2 µM | [10] > 100 µM | [11] > 100 µM | [15] 32.6 µM | [13] > 100 µM | [14] 24 µM

CCc1cc(CCC(=O)Nc2ccccc2[N+](=O)[O-])nc(S)n1
inactive: [16] > 100 µM | [1] > 100 µM | [2] > 100 µM | [3] > 100 µM | [5] > 100 µM | [6] > 100 µM | [7] > 100 µM | [8] > 100 µM | [9] > 100 µM | [15] > 100 µM | [12] > 100 µM | [13] > 100 µM | [14] > 100 µM

Cc1ccc(S(=O)(=O)OC2CC=CC2)cc1
inactive: [1] > 100 µM | [2] > 100 µM | [3] > 100 µM | [4] > 100 µM | [5] > 100 µM | [6] > 100 µM | [7] > 100 µM | [8] > 100 µM | [9] > 100 µM | [11] > 100 µM | [15] > 100 µM | [12] > 100 µM | [13] > 100 µM

CCOC(=O)C(C)(NC(=O)c1ccc(NCc2ccc3nc(NC(=O)c4ccccc4)nc(NC(=O)c4ccccc4)c3c2)cc1)C(=O)OCC
inactive: [16] 34.9 µM | [1] 14.1 µM | [2] 40.4 µM | [3] 13 µM | [4] 11.4 µM | [5] 12.5 µM | [6] 13.3 µM | [7] 14.5 µM | [8] 6.79 µM | [10] 13.4 µM | [11] 25.8 µM | [15] 26.6 µM | [13] 8.49 µM | [14] 3.51 µM

CC(C)c1cc2c(O)c(c1)Cc1cc(C(C)C)cc(c1O)Cc1cc(C(C)C)cc(c1O)Cc1cc(C(C)C)cc(c1O)C2
inactive: [16] > 100 µM | [1] > 100 µM | [2] > 100 µM | [5] > 100 µM | [6] > 100 µM | [7] > 100 µM | [8] > 100 µM | [9] > 100 µM | [10] > 100 µM | [15] > 100 µM | [12] > 100 µM | [13] > 100 µM | [14] > 100 µM

C=CCC1(C(=O)OC(C)(C)C)C(OC)=C(C(=O)OC(C)(C)C)C2C1C(C(=O)OC(C)(C)C)=C(OC)C2(CC=C)C(=O)OC(C)(C)C (stereo unspecified)
inactive: [16] > 100 µM | [1] > 100 µM | [2] > 100 µM | [3] > 100 µM | [4] > 100 µM | [5] > 100 µM | [8] > 100 µM | [9] > 100 µM | [10] > 100 µM | [11] > 100 µM | [15] > 100 µM | [12] > 100 µM | [13] > 100 µM | [14] > 100 µM

COc1cc(C2C(C(=O)O)=C(C)Oc3cc4c(cc32)OCO4)cc(OC)c1OC (stereo unspecified)
inactive: [2] 23.9 µM | [3] 59 µM | [4] 38.2 µM | [5] 39.9 µM | [6] 31.6 µM | [7] 37.7 µM | [8] 17.3 µM | [9] 19.9 µM | [15] 21.3 µM | [13] 11.7 µM

CC(O)CN1C(=O)NC(Cc2ccccc2)C1=O (stereo unspecified)
inactive: [16] > 100 µM | [1] > 100 µM | [2] > 100 µM | [3] > 100 µM | [4] > 100 µM | [6] > 100 µM | [7] > 100 µM | [8] > 100 µM | [10] > 100 µM | [11] > 100 µM | [12] > 100 µM | [14] > 100 µM

Cc1cc2c(c(C(N)=O)c1C)-c1ccccc1C2=O
inactive: [1] > 100 µM | [2] > 100 µM | [3] > 100 µM | [4] > 100 µM | [5] > 100 µM | [6] > 100 µM | [7] > 100 µM | [8] > 100 µM | [9] > 100 µM | [10] > 100 µM | [11] > 100 µM | [15] > 100 µM | [12] 2.42 µM | [13] > 100 µM | [14] > 100 µM

CC(=O)Nc1cc(N(CCOS(C)(=O)=O)CCOS(C)(=O)=O)ccc1N=O
inactive: [16] > 100 µM | [1] > 100 µM | [2] > 100 µM | [3] > 100 µM | [6] > 100 µM | [7] > 100 µM | [8] > 100 µM | [9] > 100 µM | [10] > 100 µM | [11] > 100 µM | [15] > 100 µM | [12] > 100 µM | [13] > 100 µM | [14] > 100 µM

O=C(CCn1[nH]c(=O)c(Cl)c(Cl)c1=O)NO
inactive: [1] > 100 µM | [2] > 100 µM | [3] > 100 µM | [4] > 100 µM | [5] > 100 µM | [6] > 100 µM | [7] > 100 µM | [8] > 100 µM | [9] > 100 µM | [10] > 100 µM | [11] > 100 µM | [15] > 100 µM | [12] > 100 µM | [13] > 100 µM | [14] > 100 µM

OCCCOC(c1ccccc1)(c1ccccc1)c1ccccc1
inactive: [16] > 100 µM | [2] > 100 µM | [3] > 100 µM | [4] > 100 µM | [5] > 100 µM | [6] 24.3 µM | [7] > 100 µM | [8] 82.6 µM | [9] > 100 µM | [10] > 100 µM | [11] > 100 µM | [15] 93.3 µM | [12] > 100 µM | [13] 88.5 µM | [14] > 100 µM

COc1cccc(SSc2cccc(OC)c2C(=O)O)c1C(=O)O
inactive: [16] > 100 µM | [1] > 100 µM | [2] > 100 µM | [3] > 100 µM | [4] > 100 µM | [5] > 100 µM | [6] > 100 µM | [7] > 100 µM | [8] > 100 µM | [9] > 100 µM | [10] > 100 µM | [15] > 100 µM | [12] > 100 µM | [13] > 100 µM | [14] > 100 µM
